Values quoted from earlier work, collected in patent US6100258A, “Aromatic amine compounds that antagonize the pain enhancing effects of prostaglandins” (Zeneca Limited, priority 1995, dated 2000).

Experiments:
[1] = test system: guinea pig ileum
[2] = test system: dog fundus

Question: Which results are given for `CC(=O)NNC(=O)N1Cc2ccccc2Oc2ccc(Cl)cc21` [SC-19220]?
Answer: block of the effect of PGE2 [1]: blocks the effect of PGE2; block of the effect of PGE2 [2]: blocks the effect of PGE2
